This is an account of results in the supplement of paper PMC11616607.

The first experiment deals with COV318. Briefly: drug sensitivity score (DSS) from 5-point dose-response viability curve (DSS (area-under-curve based score)); higher = more sensitive (stronger growth inhibition or killing); extreme values may be limits of the assay. The note with it: exposure time: 72 h; concentration range: 5 concentrations over 10,000-fold range. An outline of the steps: (§1)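 Each cell line and drug received a drug sensitivity score from Breeze software, where higher means more sensitive. Zero stands for no response. Scores came from CellTiter-Glo viability readings of ovarian cancer and normal ovarian cells, 1,500 per well in 384-well plates, after 3 days at 37°C, 5% CO2 with drugs at five concentrations over a 10,000-fold range.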
With `Oc1ncnc2[nH]ncc12` [Allopurinol], the drug sensitivity score is 0. Compound `Cc1nc(NC(=O)N2CCC[C@H]2C(N)=O)sc1-c1ccnc(C(C)(C)C(F)(F)F)c1` [Alpelisib] yielded a drug sensitivity score of 0.5. The same measure, in the same setting: for `O=C(Nc1cc(Oc2cc(F)c(NC(=O)C3(C(=O)Nc4ccc(F)cc4)CC3)cc2F)ccn1)C1CC1` [Altiratinib] the value was 1.7; for `CN1CC[C@H](c2c(O)cc(O)c3c(=O)cc(-c4ccccc4Cl)oc23)[C@H](O)C1` [Alvocidib], 11.5; for `CCN(CC)CCNC(=O)c1c(C)[nH]c(/C=C2\C(=O)Nc3ccc(-c4csc(-c5ccccc5)n4)cc32)c1C` [Amcasertib], 8.8.

Compound `CCC1(c2ccc(N)cc2)CCC(=O)NC1=O` (configuration not stated) [Aminoglutethimide] came in with a drug sensitivity score of 0. On the same count and under the same terms, for `COc1cc(NS(C)(=O)=O)ccc1Nc1c2ccccc2nc2ccccc12` [Amsacrine] the value was 0.6. On the same count and under the same terms, the result for `S=C(NCc1ccc2c(c1)OCO2)N1CCN(c2ncnc3c2oc2ccccc23)CC1` [Amuvatinib] reads 0.1.

As to `O=C1CN2Cc3c(ccc(Cl)c3Cl)N=C2N1` [Anagrelide], the drug sensitivity score was 0. On to `CC(C)(C#N)c1cc(Cn2cncn2)cc(C(C)(C)C#N)c1` [Anastrozole], for which the drug sensitivity score came to 0.

`CNC(=O)c1ccc(N2C(=S)N(c3cnc(C#N)c(C(F)(F)F)c3)C(=O)C23CCC3)cc1F` [Apalutamide] displayed a drug sensitivity score of 0. `N#CC1(c2ccc(NC(=O)c3cccnc3NCc3ccncc3)cc2)CCCC1` [Apatinib] showed a drug sensitivity score of 0. Still for that read-out and setting: for `O=C(Nc1ccc(OC(F)(F)Cl)cc1)c1cnc(N2CC[C@@H](O)C2)c(-c2cc[nH]n2)c1` [Asciminib] the value was 0. The compound `CC(C)c1c(C(=O)Nc2ccccc2)c(-c2ccccc2)c(-c2ccc(F)cc2)n1CC[C@@H](O)C[C@@H](O)CC(=O)O` [Atorvastatin] registered a drug sensitivity score of 0.

As for `CC(=O)OC[C@H]1O[C@@H]([S-])[C@H](OC(C)=O)[C@@H](OC(C)=O)[C@@H]1OC(C)=O.CCP(CC)CC.[Au+]` [Auranofin], the drug sensitivity score came to 5. On the same count and under the same terms, the result for `CNC(=O)c1ccccc1Sc1ccc2c(/C=C/c3ccccn3)n[nH]c2c1` [Axitinib] reads 0.

The test system of the next experiment is Ovsaho. The description is as above. As to conditions: exposure time: 72 h; concentration range: 5 concentrations over 10,000-fold range. An outline of the steps:
as §1
`COc1ccc(-c2ccc3c(N4CCOC[C@@H]4C)nc(N4CCOC[C@@H]4C)nc3n2)cc1CO` [AZD8055] showed a drug sensitivity score of 16.9.

Regarding `N#Cc1ccc2[nH]c(O)c(-c3ccc(CN4CCOCC4)cn3)c2c1` [AZD-1080], the drug sensitivity score is 0. The same measure, in the same setting: the result for `Cc1ncc(-c2ccnc(Nc3ccc(S(C)(=O)=O)cc3)n2)n1C(C)C` [AZD-5438] reads 8.1. The same measure, in the same setting: the result for `Cc1cc([C@@H](C)Nc2ccccc2C(=O)O)c2nc(N3CCOCC3)cc(=O)n2c1` [AZD-6482] reads 7.6. Still for that read-out and setting: for `C[C@@H](Nc1cc(F)cc(F)c1)c1cc(C(=O)N(C)C)cc2c(=O)cc(N3CCOCC3)oc12` [AZD-8186] the value was 6.3; for `CCN1CCN(Cc2ccc(Nc3ncc(F)c(-c4cc(F)c5nc(C)n(C(C)C)c5c4)n3)nc2)CC1` [Abemaciclib], 3.2; for `CN(C)Cc1c(C(=O)NCCOc2ccc(C(=O)NO)cc2)oc2ccccc12` [Abexinostat], 10. `C[C@]12CC[C@H](O)CC1=CC[C@@H]1[C@@H]2CC[C@]2(C)C(c3cccnc3)=CC[C@@H]12` [Abiraterone] came in with a drug sensitivity score of 0. Consider `CC#CC(=O)N1CCC[C@H]1c1nc(-c2ccc(C(=O)Nc3ccccn3)cc2)c2c(N)nccn12` [Acalabrutinib], for which the drug sensitivity score came to 1. On the same count and under the same terms, the result for `COc1cc(C)c(/C=C/C(C)=C/C=C/C(C)=C/C(=O)O)c(C)c1C` [Acitretin] reads 0; that for `CN(C)C/C=C/C(=O)Nc1cc2c(Nc3ccc(F)c(Cl)c3)ncnc2cc1O[C@H]1CCOC1` [Afatinib], 3.2. The same measure, in the same setting: for `Cn1ncc(Cl)c1-c1cc(C(=O)N[C@H](CN)Cc2cccc(F)c2)sc1Cl` [Afuresertib] the value was 1.5. On the same count and under the same terms, the result for `COc1cccc2c1C(=O)c1c(O)c3c(c(O)c1C2=O)C[C@@](O)(/C(CO)=N/NC(=O)CCCCCN1C(=O)C=CC1=O)C[C@@H]3O[C@H]1C[C@H](N)[C@H](O)[C@H](C)O1` [Aldoxorubicin] reads 8.3; that for `CCc1cc2c(cc1N1CCC(N3CCOCC3)CC1)C(C)(C)c1[nH]c3cc(C#N)ccc3c1C2=O` [Alectinib], 0; that for `COc1cc(Nc2ncc3c(n2)-c2ccc(Cl)cc2C(c2c(F)cccc2OC)=NC3)ccc1C(=O)O` [Alisertib], 3.1. As to `Oc1ncnc2[nH]ncc12` [Allopurinol], the drug sensitivity score was found to be 0. Same read-out and setting: for `Cc1nc(NC(=O)N2CCC[C@H]2C(N)=O)sc1-c1ccnc(C(C)(C)C(F)(F)F)c1` [Alpelisib] the value was 0.4; for `O=C(Nc1cc(Oc2cc(F)c(NC(=O)C3(C(=O)Nc4ccc(F)cc4)CC3)cc2F)ccn1)C1CC1` [Altiratinib], 3.6. Same read-out and setting: for `CN1CC[C@H](c2c(O)cc(O)c3c(=O)cc(-c4ccccc4Cl)oc23)[C@H](O)C1` [Alvocidib] the value was 15.9; for `CCN(CC)CCNC(=O)c1c(C)[nH]c(/C=C2\C(=O)Nc3ccc(-c4csc(-c5ccccc5)n4)cc32)c1C` [Amcasertib], 0. Still for that read-out and setting: the result for `CCC1(c2ccc(N)cc2)CCC(=O)NC1=O` (configuration not stated) [Aminoglutethimide] reads 0; that for `COc1cc(NS(C)(=O)=O)ccc1Nc1c2ccccc2nc2ccccc12` [Amsacrine], 5.5. `S=C(NCc1ccc2c(c1)OCO2)N1CCN(c2ncnc3c2oc2ccccc23)CC1` [Amuvatinib]: the drug sensitivity score turned out to be 0.1.

`O=C1CN2Cc3c(ccc(Cl)c3Cl)N=C2N1` [Anagrelide]: the drug sensitivity score worked out at 0. Still for that read-out and setting: the result for `CC(C)(C#N)c1cc(Cn2cncn2)cc(C(C)(C)C#N)c1` [Anastrozole] reads 0; that for `CNC(=O)c1ccc(N2C(=S)N(c3cnc(C#N)c(C(F)(F)F)c3)C(=O)C23CCC3)cc1F` [Apalutamide], 0; that for `N#CC1(c2ccc(NC(=O)c3cccnc3NCc3ccncc3)cc2)CCCC1` [Apatinib], 0.3. As for `O=C(Nc1ccc(OC(F)(F)Cl)cc1)c1cnc(N2CC[C@@H](O)C2)c(-c2cc[nH]n2)c1` [Asciminib], the drug sensitivity score was determined as 0. Still for that read-out and setting: the result for `CC(C)c1c(C(=O)Nc2ccccc2)c(-c2ccccc2)c(-c2ccc(F)cc2)n1CC[C@@H](O)C[C@@H](O)CC(=O)O` [Atorvastatin] reads 5.2. Compound `CC(=O)OC[C@H]1O[C@@H]([S-])[C@H](OC(C)=O)[C@@H](OC(C)=O)[C@@H]1OC(C)=O.CCP(CC)CC.[Au+]` [Auranofin] showed a drug sensitivity score of 7.8. The compound `CNC(=O)c1ccccc1Sc1ccc2c(/C=C/c3ccccn3)n[nH]c2c1` [Axitinib] had a drug sensitivity score of 0.8.
